Values of other authors, collected in patent publication US12176087B2, “Pharmacogenomic decision support for modulators of the NMDA, glycine, and AMPA receptors” (THE REGENT OF THE UNIVERSITY OF MICHIGAN, priority 2019, dated 2024).

Tests used:
[1] = system: treatment-resistant depression (TRD) patients
[2] = system: TRD patients; settings: phase III trial

Structure (SMILES) | TRD patients who do not remit after treatment ([1]; fraction of all TRD patients) | TRD patients with rapid antidepressant response and concomitant elevated levels of glutamate in cortex ([1]; measured by MADRS total score) | deaths reported [2] | TRD patients who experienced severe dissociative effects ([2]; fraction of TRD patients) | TRD patients in the treatment arm with severe psychotomimetic effects including delirium, delusion and suicidal ideation, as well as suicide attempts ([2]; treatment arm, additional) [%]
CNC1(c2ccccc2Cl)CCCCC1=O (racemic) [Ketamine, RS-2-chlorophenyl-2-methylamino-cyclohexanone] | about half | approximately 50% | – | – | –
CN[C@]1(c2ccccc2Cl)CCCCC1=O [Esketamine] | – | – | 2 | a quarter | 6.9
